Counter-ions that a name gives are not always drawn.
Test system: lipoperoxide produced in brain homogenate
Experiment: Inhibitory effect on lipid peroxidation in rat cerebral cortical homogenates (thiobarbituric acid method)
Type: biochemical
Settings: rat cerebral cortical homogenate supernatant, 37° C. for 30 minutes, absorbance at 532 nm
Procedure: Inhibitory Effect on Lipid Peroxidation in Rat Cerebral Cortical Homogenates and Orally Treated Mice
Quantitative determination of lipoperoxide produced in brain homogenate was performed according to the method of Stocks et al. (Clin. Sci. Mol. Med. 47-215(1974)). As animals, brains of Jcl. Wistar male rats, 10-13 weeks age, were used. Rat cerebral cortices were obtained after decapitation, homogenized in an ice-cooled phosphate saline buffer (50 mM Ph 7.4) (Nichion Microhomogenizer, S-310E), centrifuged at 10,000 g for 10 minutes (Hitachi CF15D type, RT15A6 Anglerotor), and the supernatant was used in a test. This supernatant was diluted 3-fold with the same buffer. To this 1 mL were added […] of test drugs dissolved in dimethyl sulfoxide (DMSO) to the final concentration of 0.0125, 0.025, 0.05, 0.10, 0.20, 0.40, 0.80 and 1.60 μM, respectively, which was incubated at 37° C. for 30 minutes. The reaction was stopped by addition of 200 μL of 35% perchloric acid, and centrifuged at 13,000 g for 10 minutes. To 1 mL of this supernatant was added 0.5 mL of 2-thiobarbituric acid (500 mg/100 mL) dissolved in 50% acetic acid, heated to boil at 95° C. for 15 minutes, which was determined by the absorbance at 532 nm. […]

| Structure (SMILES) | IC50 [nM] |
| --- | --- |
| Cc1c2c(c(C)c3c1NCC3)OC(C)(CN1CCC(c3ccccc3)CC1)C2 (centres unmarked) [Example 11, 3,5,6,7-Tetrahydro-2,4,8-trimethyl-2-[(4-phenylpiperidino)methyl]-2H-furo[2,3-f]indole] | 67 |
| Cc1c2c(c(C)c3c1NCC3)OC(C)(CN1CCC(NC(c3ccccc3)c3ccccc3)CC1)C2 (centres unmarked) [Example 18, N-(Diphenylmethyl)-1-[(3,5,6,7-tetrahydro-2,4,8-trimethyl-2H-furo[2,3-f]indol-2-yl)methyl]-4-piperidinamine trihydrochloride] | 360 |

Source: patent US6872718B1, “Tricyclic dihydrobenzofuran derivatives, process for the preparation thereof and agents” (Takeda Chemical Industries, Ltd., priority 1999, dated 2005)
